Results as given in ChEMBL document CHEMBL3885881, “DrugMatrix”.

Species on record: Rattus norvegicus
Assay: DrugMatrix - Regimen: Daily Repeat
Format: toxicity, organism-based, Sprague-Dawley
Set-up: regimen Daily Repeat, gender Male, age 6-8 weeks
Settings: in vivo, po, route oral GAVAGE, vehicle .5 % CMC; for ABSOLUTE BASOPHIL / ABSOLUTE EOSINOPHIL / ABSOLUTE LYMPHOCYTE / ABSOLUTE MONOCYTE / ABSOLUTE SEGMENTED NEUTROPHIL / BASOPHIL / EOSINOPHIL / ERYTHROCYTE COUNT / HEMATOCRIT / HEMOGLOBIN / LEUKOCYTE COUNT / LYMPHOCYTE / MEAN CORPUSCULAR HEMOGLOBIN / MEAN CORPUSCULAR HEMOGLOBIN CONCENTRATION / MEAN CORPUSCULAR VOLUME / MONOCYTE / NEUTROPHIL / NUCLEATED RED BLOOD CELLS / PLATELET COUNT: tissue Blood; for ALANINE AMINOTRANSFERASE / ALBUMIN / ALKALINE PHOSPHATASE / ASPARTATE AMINOTRANSFERASE / BLOOD UREA NITROGEN / CARBON DIOXIDE / CHLORIDE / CHOLESTEROL / CREATINE PHOSPHOKINASE / CREATININE / GLUCOSE / LACTATE DEHYDROGENASE / LIPASE / PHOSPHORUS / POTASSIUM / SODIUM / TOTAL BILIRUBIN / TOTAL PROTEIN / URIC ACID: tissue Plasma
[1] = 55 mg/kg, 120 h, dose level Low, time 5 day
[2] = 1000 mg/kg, 72 h, dose level High, time 3 day
[3] = 1000 mg/kg, 120 h, dose level High, time 5 day

Compound: CCN1CCCC1CNC(=O)c1cc(S(N)(=O)=O)ccc1OC (centres undefined) [SULPIRIDE]
- ABSOLUTE BASOPHIL [1]: 0 CELLS/uL
- ABSOLUTE EOSINOPHIL [1]: 0 CELLS/uL
- ABSOLUTE LYMPHOCYTE [1]: 14792 CELLS/uL
- ABSOLUTE MONOCYTE [1]: 54.33 CELLS/uL
- ABSOLUTE SEGMENTED NEUTROPHIL [1]: 2187 CELLS/uL
- BASOPHIL [1]: 0%
- EOSINOPHIL [1]: 0%
- ERYTHROCYTE COUNT [1]: 5.47 x10E6/uL
- HEMATOCRIT [1]: 34.67%
- HEMOGLOBIN [1]: 13.83 G/DL
- LEUKOCYTE COUNT [1]: 17.03 x10E3/uL
- LYMPHOCYTE [1]: 86%
- MEAN CORPUSCULAR HEMOGLOBIN [1]: 25.3 pg
- MEAN CORPUSCULAR HEMOGLOBIN CONCENTRATION [1]: 39.93 G/DL
- MEAN CORPUSCULAR VOLUME [1]: 63.4 fL
- MONOCYTE [1]: 0.33%
- NEUTROPHIL [1]: 13.67%
- NUCLEATED RED BLOOD CELLS [1]: 0 /100WBC
- PLATELET COUNT [1]: 1253.33 x10E3/uL
- ALANINE AMINOTRANSFERASE [1]: 50.67 u/L
- ALBUMIN [1]: 4.43 G/DL
- ALKALINE PHOSPHATASE [1]: 322.67 u/L
- ASPARTATE AMINOTRANSFERASE [1]: 90 u/L
- BLOOD UREA NITROGEN [1]: 16 mg/dL
- CARBON DIOXIDE [1]: 28 mmol/L
- CHLORIDE [1]: 102 MEQ/L
- CHOLESTEROL [1]: 86.33 mg/dL
- CREATINE PHOSPHOKINASE [1]: 434.67 u/L
- CREATININE [1]: 0.2 mg/dL
- GLUCOSE [1]: 160.33 mg/dL
- LACTATE DEHYDROGENASE [1]: 149 u/L
- LIPASE [1]: 9 u/L
- PHOSPHORUS [1]: 13 mg/dL
- POTASSIUM [1]: 6.98 MEQ/L
- SODIUM [1]: 147.83 MEQ/L
- TOTAL BILIRUBIN [1]: 0.2 mg/dL
- TOTAL PROTEIN [1]: 6.2 G/DL
- URIC ACID [1]: 1.9 mg/dL
- ABSOLUTE BASOPHIL [2]: 0 CELLS/uL
- ABSOLUTE EOSINOPHIL [2]: 50.67 CELLS/uL
- ABSOLUTE LYMPHOCYTE [2]: 15013.67 CELLS/uL
- ABSOLUTE MONOCYTE [2]: 0 CELLS/uL
- ABSOLUTE SEGMENTED NEUTROPHIL [2]: 1202.33 CELLS/uL
- BASOPHIL [2]: 0%
- EOSINOPHIL [2]: 0.33%
- ERYTHROCYTE COUNT [2]: 5.92 x10E6/uL
- HEMATOCRIT [2]: 38.13%
- HEMOGLOBIN [2]: 15.07 G/DL
- LEUKOCYTE COUNT [2]: 16.27 x10E3/uL
- LYMPHOCYTE [2]: 92%
- MEAN CORPUSCULAR HEMOGLOBIN [2]: 25.5 pg
- MEAN CORPUSCULAR HEMOGLOBIN CONCENTRATION [2]: 39.53 G/DL
- MEAN CORPUSCULAR VOLUME [2]: 64.5 fL
- MONOCYTE [2]: 0%
- NEUTROPHIL [2]: 7.67%
- NUCLEATED RED BLOOD CELLS [2]: 0 /100WBC
- PLATELET COUNT [2]: 1327 x10E3/uL
- ALANINE AMINOTRANSFERASE [2]: 52.33 u/L
- ALBUMIN [2]: 4.53 G/DL
- ALKALINE PHOSPHATASE [2]: 415 u/L
- ASPARTATE AMINOTRANSFERASE [2]: 78.33 u/L
- BLOOD UREA NITROGEN [2]: 16.67 mg/dL
- CARBON DIOXIDE [2]: 29.33 mmol/L
- CHLORIDE [2]: 102.67 MEQ/L
- CHOLESTEROL [2]: 85 mg/dL
- CREATINE PHOSPHOKINASE [2]: 227.33 u/L
- CREATININE [2]: 0.21 mg/dL
- GLUCOSE [2]: 146 mg/dL
- LACTATE DEHYDROGENASE [2]: 310 u/L
- LIPASE [2]: 9.33 u/L
- PHOSPHORUS [2]: 14.17 mg/dL
- POTASSIUM [2]: 7.01 MEQ/L
- SODIUM [2]: 147.37 MEQ/L
- TOTAL BILIRUBIN [2]: 0.2 mg/dL
- TOTAL PROTEIN [2]: 6.33 G/DL
- URIC ACID [2]: 1.47 mg/dL
- ABSOLUTE BASOPHIL [3]: 0 CELLS/uL
- ABSOLUTE EOSINOPHIL [3]: 69.67 CELLS/uL
- ABSOLUTE LYMPHOCYTE [3]: 10948.67 CELLS/uL
- ABSOLUTE MONOCYTE [3]: 52.33 CELLS/uL
- ABSOLUTE SEGMENTED NEUTROPHIL [3]: 1129.33 CELLS/uL
- BASOPHIL [3]: 0%
- EOSINOPHIL [3]: 0.67%
- ERYTHROCYTE COUNT [3]: 5.48 x10E6/uL
- HEMATOCRIT [3]: 36.03%
- HEMOGLOBIN [3]: 14.33 G/DL
- LEUKOCYTE COUNT [3]: 12.2 x10E3/uL
- LYMPHOCYTE [3]: 89.67%
- MEAN CORPUSCULAR HEMOGLOBIN [3]: 26.17 pg
- MEAN CORPUSCULAR HEMOGLOBIN CONCENTRATION [3]: 39.77 G/DL
- MEAN CORPUSCULAR VOLUME [3]: 65.8 fL
- MONOCYTE [3]: 0.33%
- NEUTROPHIL [3]: 9.33%
- NUCLEATED RED BLOOD CELLS [3]: 0.33 /100WBC
- PLATELET COUNT [3]: 1145.33 x10E3/uL
- ALANINE AMINOTRANSFERASE [3]: 56.33 u/L
- ALBUMIN [3]: 4.6 G/DL
- ALKALINE PHOSPHATASE [3]: 436.67 u/L
- ASPARTATE AMINOTRANSFERASE [3]: 86 u/L
- BLOOD UREA NITROGEN [3]: 17.67 mg/dL
- CARBON DIOXIDE [3]: 26.33 mmol/L
- CHLORIDE [3]: 99.33 MEQ/L
- CHOLESTEROL [3]: 77 mg/dL
- CREATINE PHOSPHOKINASE [3]: 198 u/L
- CREATININE [3]: 0.18 mg/dL
- GLUCOSE [3]: 150.67 mg/dL
- LACTATE DEHYDROGENASE [3]: 162 u/L
- LIPASE [3]: 13.33 u/L
- PHOSPHORUS [3]: 14.83 mg/dL
- POTASSIUM [3]: 7.2 MEQ/L
- SODIUM [3]: 147.4 MEQ/L
- TOTAL BILIRUBIN [3]: 0.2 mg/dL
- TOTAL PROTEIN [3]: 6.37 G/DL
- URIC ACID [3]: 1.9 mg/dL
